Source: EPA's CvTdb concentration-time database

Tests used:
Rat [1] = experiment: concentration in brain after dosing; settings: 1.5 h; dosed: 2-Methyltetrahydrofuran; 40 mg/kg; iv; Male; Harlan Sprague Dawley
Rat [2] = experiment: concentration in brain after dosing; settings: 2 min; dosed: 2-Methyltetrahydrofuran; 40 mg/kg; iv; Male; Harlan Sprague Dawley
Rat [3] = experiment: concentration in liver after dosing; settings: 6 h; dosed: Fluorotelomer alcohol 8+2; 24 mg/kg; oral; Male; Harlan Sprague Dawley
Rat [4] = experiment: concentration in plasma after dosing; settings: 192 h; dosed: 678-39-7; 12 mg/kg; iv; Male; F344
Rat [5] = experiment: concentration in plasma after dosing; settings: dosed: 678-39-7, 12 mg/kg, iv, Male, F344
Rat [6] = experiment: concentration in kidney after dosing; settings: 1 h; dosed: Fluorotelomer alcohol 8+2; 80 mg/kg; oral; Female; Harlan Sprague Dawley
Rat [7] = experiment: concentration in liver after dosing; settings: 0.5 h; dosed: Fluorotelomer alcohol 8+2; 24 mg/kg; oral; Male; Harlan Sprague Dawley
Rat [8] = experiment: concentration in plasma after dosing; settings: dosed: 678-39-7, 40 mg/kg, iv, Male, F344
Rat [9] = experiment: concentration in plasma after dosing; settings: dosed: 678-39-7, 40 mg/kg, iv, Female, Harlan Sprague-Dawley
Rat [10] = experiment: concentration in kidney after dosing; settings: 1 h; dosed: Perfluorohexanoic Acid; 80 mg/kg; oral; Female; Harlan Sprague Dawley
Rat [11] = experiment: concentration in liver after dosing; settings: 3 h; dosed: Perfluorohexanoic Acid; 80 mg/kg; oral; Male; Harlan Sprague Dawley
Rat [12] = experiment: concentration in plasma after dosing; settings: 0.75 h; dosed: Perfluorohexanoic Acid; 80 mg/kg; oral; Male; Harlan Sprague Dawley
Rat [13] = experiment: concentration in plasma after dosing; settings: dosed: Perfluorohexanoic Acid, 40 mg/kg, oral, Male, Harlan Sprague Dawley
Rat [14] = experiment: concentration in plasma after dosing; settings: dosed: Perfluorohexanoic Acid, 40 mg/kg, iv, Male, F344
Rat [15] = experiment: concentration in plasma after dosing; settings: dosed: Perfluorohexanoic Acid, 40 mg/kg, iv, Male, F344; remark: listed apart in the source
Rat [16] = experiment: concentration in brain after dosing; settings: 1 h; dosed: Perfluorohexanoic Acid; 80 mg/kg; oral; Male; Harlan Sprague Dawley
Rat [17] = experiment: concentration in plasma after dosing; settings: 0.75 h; dosed: Perfluorohexanoic Acid; 40 mg/kg; iv; Female; Harlan Sprague-Dawley
Rat [18] = experiment: concentration in plasma after dosing; settings: dosed: Perfluorohexanoic Acid, 80 mg/kg, oral, Male, Harlan Sprague Dawley
Rat [19] = experiment: concentration in plasma after dosing; settings: dosed: Perfluorohexanoic Acid, 40 mg/kg, iv, Male, F344; remark: listed apart in the source
rat [20] = experiment: concentration in blood after dosing; negative times count back from the end of exposure; settings: dosed: trichloroethylene, 50 ppm, inhalation, duration: 4 hr, male, Sprague Dawley
Rat [21] = experiment: concentration in kidney after dosing; settings: 3360 h; dosed: Perfluorooctane Sulfonate; 2 mg/kg; oral; Female; Harlan Sprague Dawley
Rat [22] = experiment: concentration in kidney after dosing; settings: 3360 h; dosed: Perfluorooctane Sulfonate; 20 mg/kg; oral; Male; Harlan Sprague Dawley
Rat [23] = experiment: concentration in kidney after dosing; settings: 864 h; dosed: Perfluorooctane Sulfonate; 2 mg/kg; oral; Female; Harlan Sprague Dawley
Rat [24] = experiment: concentration in kidney after dosing; settings: 3360 h; dosed: Perfluorooctane Sulfonate; 2 mg/kg; oral; Female; Harlan Sprague Dawley; remark: listed apart in the source
Rat [25] = experiment: concentration in plasma after dosing; settings: 6 h; dosed: Gemfibrozil; 4.29 mg/kg; oral; Male; Sprague-Dawley
Rat [26] = experiment: concentration in plasma after dosing; settings: 4 h; dosed: Gemfibrozil; 100 mg/kg; oral; Male; Sprague-Dawley
Rat [27] = experiment: concentration in plasma after dosing; settings: 1 h; dosed: Gemfibrozil; 4.29 mg/kg; oral; Male; Sprague-Dawley
Rat [28] = experiment: concentration in plasma after dosing; settings: 0.5 h; dosed: Gemfibrozil; 100 mg/kg; oral; Male; Sprague-Dawley
Rat [29] = experiment: concentration in plasma after dosing; settings: 0.25 h; dosed: Gemfibrozil; 50 mg/kg; oral; Male; Sprague-Dawley

CC1CCCO1 (stereo unspecified) [2-Methyltetrahydrofuran]
Settings	concentration in brain [ng/mL]
Rat [1]	6260
Rat [2]	39000

O=C(O)CCC(F)(F)C(F)(F)C(F)(F)C(F)(F)C(F)(F)C(F)(F)C(F)(F)F [Fluorotelomer acid 7+3]
Settings	concentration in kidney [ng/g]	concentration in liver [ng/g]	concentration in plasma [ng/mL]
Rat [3]	–	1860	–
Rat [4]	–	–	8.6
Rat [6]	762	–	–
Rat [7]	–	347	–

Settings	concentration in plasma [ng/mL]
Rat [5], 0.25 h	37
Rat [5], 24 h	183
Rat [8], 3 h	3090
Rat [8], 5 min	25.4
Rat [9], 1 h	1680
Rat [9], 24 h	315

O=C(O)C(F)(F)C(F)(F)C(F)(F)C(F)(F)C(F)(F)F [Perfluorohexanoic Acid]
Settings	concentration in brain [ng/g]	concentration in kidney [ng/g]	concentration in liver [ng/g]	concentration in plasma [ng/mL]
Rat [10]	–	85800	–	–
Rat [11]	–	–	37400	–
Rat [12]	–	–	–	129000
Rat [16]	2830	–	–	–
Rat [17]	–	–	–	1570

Settings	concentration in plasma [ng/mL]
Rat [13], 0.75 h	78200
Rat [13], 12 h	5210
Rat [14], 3 h	3900
Rat [14], 5 min	23100
Rat [15], 0.5 h	23200
Rat [15], 12 h	120
Rat [18], 0.25 h	156000
Rat [18], 24 h	416
Rat [19], 0.5 h	14500
Rat [19], 12 h	35.7

ClC=C(Cl)Cl [trichloroethylene]
rat [20]
Settings	concentration in blood [ng/mL]
0.2317 h	2420
0.4119 h	1510
0.9932 h	820
1.803 h	370
3.975 h	289

rat [20], during exposure
Settings	concentration in blood [ng/mL]
-6 s	2790
-3.423 h	1890
-3.024 h	1360
-1.999 h	2680
-1.012 h	2670

O=S(=O)([O-])C(F)(F)C(F)(F)C(F)(F)C(F)(F)C(F)(F)C(F)(F)C(F)(F)C(F)(F)F [Perfluorooctane Sulfonate]
Settings	concentration in kidney [ng/g]
Rat [21]	1110
Rat [22]	13900
Rat [23]	1390
Rat [24]	1070

Cc1ccc(C)c(OCCCC(C)(C)C(=O)O)c1 [Gemfibrozil]
Settings	concentration in plasma [ng/mL]
Rat [25]	388
Rat [26]	6150
Rat [27]	258
Rat [28]	40400
Rat [29]	14400
